Usually % inhibition stands for the percentage by which the read-out fell short of the control. Low values mean a response near the control, high ones a response far below the control.

We go through five compounds from paper PMC6424996, “Effect of peptide-conjugated nanoparticles on cell lines” (Progress in Biomaterials, 2019).

Type in all cases: cell-based
Series [1] deals with MDA MB-231 (Breast cancer) cells. Put plainly: MTT assay of nanoparticles, P1 and conjugates on MDA MB-231. The following applies: for % inhibition: MTT, 24 h exposure, 5000 cells/well, 570 nm, triplicates. As for the experimental part: (§1) Cell lines were acquired from NCCS—National Centre for Cell Science, Pune, India. The HT-29 (Colon carcinoma) and MDA MB-231 (Breast cancer) cells were plated into 25-mm^2 T-flasks after thawing them at 37 °C in a water bath for few minutes. The thawed cells were transferred in a centrifuge tube and centrifuged for 3 min at 2000 rpm/min. The cells were, thus, collected discarding the supernatant and mixed well in Dulbecco’s modified Eagle’s medium (DMEM) solution with 12% fetal bovine serum, and antibiotics (streptopenicillin and amphotericin B solution, Sigma). Later, they were plated in 25 mm^2 in the same DMEM solution, individually. The T-flasks containing the cells were incubated for 24 h in humidified environment with 5% CO2. These cells after 24 h were washed with phosphate buffer saline (PBS). The medium was regularly changed for the cells to reach 50% confluence (Hajiaghaalipour et al [2015]). To check the viability of cells, MTT assay was carried out and 96-well plates were used to seed the cell lines of interest at 5000 cells/well and incubated overnight at 37 °C in an incubator with 5% CO2. After incubation, the cells were treated with different concentrations (1, 5, 10 μg/mL) of P1, AgNPs, AuNPs, P1–AgNP and P1–AuNP conjugates. The plates along with the treated cells were again incubated for 24 h at the same condition. The stored stock of MTT solution was added to the control and treated cell line samples, and again incubated at 37 °C for 2–3 h. After incubation, the media were carefully removed from the wells and mixed with solubilizing buffer. A purple color solution was visible at this stage. The control solution (without incorporation of nanoparticles/pure incubated cells) and treated samples were again incubated for an hour at 37 °C to ensure that the formazan precipitate was dissolved. The measurement of MTT assay was analyzed with Elisa Reader (Thermo Scientific, Multiskan Spectrum) at 570 nm (Inkielewicz-Stepniak et al [2014]). Percentage inhibition of cells was calculated according to the following equation: Cytotoxicity(%)=(experimentalabsorbance570nmofexposedcells/absorbance570nmofunexposedcells)×100.
All experiments were done in triplicates and the results were represented as mean ± SEM. The experimental data were read by two-way analysis of variance (ANNOVA). Differences were considered significant at p < 0.05. The IC-50 value was calculated using Microsoft Excel 2007 software (logarithmic transformation of X values and nonlinear regression sigmoidal dose–response analysis with variable slope—with bottom and top constraints set at 0 and 100, resp.).
Background: Tetrazolium dyes change colour on reduction, which living cells bring about.

For another series, the system named is MDA MB-231 cells. Put plainly: PI/AO staining for dead/live cells, MDA MB-231. The following applies: MDA MB-231, 1 µg/mL, 24 h, Figs. 7, 9. As for the experimental part: (§2) HT-29 and MDA MB-231 cells were plated at a density of 1 × 10^6 cells/mL in 6-well tissue culture plates. They were treated with 1 µg/mL each of AgNP, AuNP, P1, P1–AgNP and P1–AuNP conjugated samples and were incubated in at 37 °C in 5% CO2 for 24 h. The cells were then harvested and washed twice using PBS after centrifugation at 2000 rpm for 5 min. An equal volume (10 µg/mL) of fluorescent dyes, propidium iodide (PI)/acridine orange (AO) was added to the cellular pellet. These freshly stained cells were observed under an inverted fluorescent microscope within 30 min (Banerjee and Ravishankar [2017]).
(§3) The nucleic acid-binding dyes propidium iodide (PI) and acridine orange (AO) help us to detect the dead cells and live cells under the microscope. AO permeates both dead and live cells; thus, it stains all nucleated cells to generate green fluorescence, whereas PI identifies the dead cells only and fluoresce red. The treated cancer cells were both stained with PI and AO equally, and were observed under fluorescence microscope. The results are obtained on swapping of the images to have an apparent understanding of the drug effects (Hajrezaie et al [2015]; Hajiaghaalipour et al [2015]).

The subject of series [2] is HT-29 (Colon carcinoma) cells. Put plainly: Screening of cytotoxic activity of peptides by MTT assay on HT-29 cells. The following applies: for % inhibition (peptide screening): HT-29 cancerous cells, MTT, Fig. 1.
Experimental: Different concentrations of the peptides (1 μL, 3 μL, 5 L, 10 μL, 20 μL) were used to treat the cancerous and normal cells consecutively (Inkielewicz-Stepniak et al. [2014]). The percentage inhibition was calculated.
Series [3] has as its system NIH3T3 (Mouse embryo fibroblast) cells. Put plainly: Cytotoxicity on normal NIH3T3 cells (MTT assay). As for the experimental part:
Above-mentioned peptides (P1, P2, P3, P4, and P5) obtained from other sources were screened for cytotoxicity by MTT assay on NIH3T3 (Mouse embryo fibroblast) cells (normal) and HT-29 (Colon carcinoma) cells (cancerous) by MTT assay. Different concentrations of the peptides (1 μL, 3 μL, […], 10 μL, 20 μL) were used to treat the cancerous and normal cells consecutively (Inkielewicz-Stepniak et al. [2014]). The percentage inhibition was calculated.

The test system of another series is HT-29 cells. Put plainly: PI/AO staining for dead/live cells, HT-29. The following applies: HT-29, 1 µg/mL, 24 h, Figs. 6, 8. As for the experimental part:
as §2, §3

Series [4] has as its system HT-29 (Colon carcinoma) cells. Put plainly: MTT assay of nanoparticles, P1 and conjugates on HT-29. The following applies: 24 h exposure, 5000 cells/well, 570 nm, triplicates. As for the experimental part:
as §1, with “The stored stock of MTT solution was added to the control and treated cell line samples, and again incubated at 37 °C for 2–3 h. After incubation, the media were carefully removed from the wells and mixed with solubilizing buffer. A purple color solution was visible at this stage. The control solution (without incorporation of nanoparticles/pure incubated cells) and treated samples were again incubated for an hour at 37 °C to ensure that the formazan precipitate was dissolved.” left out
All experiments were done in triplicates and the results were represented as mean ± SEM. The experimental data were read by two-way analysis of variance (ANNOVA). […] The IC-50 value was calculated using Microsoft Excel 2007 software (logarithmic transformation of X values and nonlinear regression sigmoidal dose–response analysis with variable slope—with bottom and top constraints set at 0 and 100, resp.).

Where “and” joins values, the source holds several entries; their conditions need not be identical. Identical values can stand only once. Where a SMILES comes first, the peptide text is derived from it.

Take `COC(=O)[C@H](CC(C)C)NC(=O)[C@H]1CCCN1C(=O)[C@H](CC(C)C)NC(=O)OC(C)(C)C` [Peptide P1, Boc-L-^DP-L-OMe] (HELM PEPTIDE1{[CC(C)(C)OC(=O)[*:2]].L.[dP].L.[CO[*:1]]}$$$$V2.0): the “% inhibition” value was 29.98% in series [1] (MDA MB 231, 1 µg/mL); 37.11% in series [1] (MDA MB 231, 5 µg/mL); 60.69% in series [1] (MDA MB 231, 10 µg/mL); ~ 19% and 19.69% in series [4] (HT 29, 1 µg/mL); 22.05% in series [4] (HT 29, 5 µg/mL); 27.72% in series [4] (HT 29, 10 µg/mL). The “inhibition of up to (concentration not given)” value in series [1] (MDA MB-231, MTT, Fig. 5b/5d, concentration not given) is on record as “around 29%”. Further, the “PI/AO fluorescent staining, observed state of the cells” value is “a number of apoptotic cells as well and very few dead cells” in the series on MDA MB-231 cells; “a number of apoptotic cells as well and very few dead cells” with HT-29 cells. Besides, the “IC50 rank among the five peptides” value in series [2] (HT-29, MTT, Fig. 1 legend) is given as “best IC50 value”. The “% inhibition (peptide screening)” value in series [2] (lowest concentration 1 µg/mL) came to 23.22%. Moreover, the “change of NIH3T3 cells due to treatment” value in series [3] is “do not show much change”.

On to Boc-P-A-OH [Peptide P3], for which, in series [2] (lowest concentration 1 µg/mL), the “% inhibition (peptide screening)” value is 9.12%.

On to Boc-P-U-OH [Peptide P4], for which the “% inhibition (peptide screening)” value in series [2] (5 µg/mL) is “around 20%”.

For the compound Boc-βGly-βGly-OMe [Peptide P5], the “% inhibition (peptide screening)” value in series [2] (5 µg/mL) is on record as “around 20%”.

Take (U^BF)4-OMe [Peptide P2]: the “% inhibition (peptide screening)” value in series [2] (lowest concentration 1 µg/mL) was determined as 15.93%.
